Results: patent US20260207777A1, “IMPROVED PEPTIDE INHIBITORS OF P53 BINDING PROTEIN 53BP1” (KAMAU THERAPEUTICS, INC., priority 2022, published 2026)

Assays:
CD34+ HSPCs [1] = assay: editing of CD34+ HSPCs with purified i53 variant proteins and HBB-SNP AAV donor; NGS of editing outcomes; format: cell-based, human; conditions: for increase of % HDR over control edited without protein: FIG. 13, average across all concentrations (0.1, 0.2, 0.4 mg/mL) and of L67R and L67H; for increase in levels of HDR corrected alleles over DM / impact on % NHEJ: protein 0.4 mg/mL; for increase in levels of HDR corrected alleles over DM: L67R/L67H value is the average of both; for levels of % HDR corrected alleles: HBB-SNP AAV MOI 312.5 with protein 0.4 mg/mL, compared with 2500 MOI alone (8x the amount of AAV); for impact on % NHEJ: HBB-SNP AAV MOIs 312.5 and 2500
Description: (§1) Chemically-modified single guide RNAs (sgRNAs) used to edit CD34+ HSPCs at the HBB locus were purchased from Synthego. The sgRNA sequences were modified by adding 2′-O-methyl-3′-phosphorothioate at the three terminal nucleotides of the 5′ and 3′ ends. The target sequence for the HBB sgRNA is as follows: HBB: 5′[…]-3′ (SEQ ID NO: 74). Cas9 protein (SpyFi Cas9) was purchased from Aldevron. The RNPs were complexed at a Cas9:sgRNA molar ratio of 1:2.5 at 25° C. for 10-15 min prior to electroporation. Cells were collected, counted, and pelleted at 180 g×7 min. The cell pellets were resuspended in Maxcyte buffer with complexed RNPs and electroporated using a Maxcyte EXPERT ATx Nucleofector. After electroporation cells were plated at 3.5×10^5 cells/mL in media supplemented with cytokines and the desired AAV donor added at 5.0×10^2-2.5×10^4 vector genomes/cell. 24 h after nucleofection, cells were spun down, washed once with media, and seeded into AAV-free media at a density of 3.5×10^5 cells/mL.
(§2) CD34+ HPSCs were edited with protein variants 3 days post thaw and were harvested 2 days post nucleofection for NGS analysis or 3-5 days post nucleofection for GFP expression analysis. Editing reactions with proteins at a given concentration were repeated in duplicate or triplicate (either using the same CD34+ HSPC donor or across multiple donors).
24 h after nucleofection, cells were spun down, washed with media, and seeded into AAV and DNAPKi-free media at a density of 3.5×10^5 cells/mL.
The frequency of homology directed repair (HDR) and other editing outcomes at HBB were measured using Next Generation Sequencing (NGS). An NGS assay was developed to determine the frequency of at the HBB locus by quantifying the total number of alleles that have been either: (1) not edited (% WT), (2) changed by HDR to incorporate sequence differences present in the AAV repair template (% HR), or (3) mutated during the genome correction process resulting in a gene that produces mutant β-globin (% INDELs).
For this assay, genomic DNA was harvested from cells using a Quick-DNA 96 Plus Kit (Zymo Research). The DNA concentration was measured using a Qubit 1×dsDNA BR assay kit (ThermoFisher). Purified genomic DNA was then used to amplify the HBB locus via polymerase chain reaction (PCR). The PCR products were diluted using nuclease-free water to serve as the template DNA for targeted NGS library prep. A second PCR with primers carrying partial Illumina adapters was performed to amplify a 142 base pair sequence that includes the region of the HBB locus that is to be corrected during the genome correction process. The PCR products were diluted again to serve as templates in a third PCR reaction using Nextera XT index primers. This third PCR reaction was used to assign unique identifiers to each sample and to add the full length adapter sequences necessary for Illumina sequencing. The size of the PCR products was assessed on an Agilent BioAnalyzer. PCR products were then pooled, purified using a Qiagen PCR purification kit, and quantified using PicoGreen in order to ready the PCR products for sequencing.
Based on the PicoGreen concentration, the library of pooled PCR products was diluted to a final concentration of 4 nM. Sequencing was performed on a MiSeq system using an Illumina MiSeq sequencing reagent kit (V2, 300 cycles). A 10% PhiX control library was added to the sample library to improve sequence diversity and to allow for error rate measurements. The library was denatured and loaded at […] onto the sequencing reagent cartridge. The sequencing entails paired-end 150 base pair reads and dual indexing reads. The sequencing data was demultiplexed based on the sample indexes provided and FASTQ files for each sample are generated.
The FASTQ files were processed using the CRISPResso2 pipeline^3. The data was reported as % WT, % corrected by HR, and % INDELs. […]

53BP1 Tudor domain = 53BP1 Tudor domain (Homo sapiens, UniProt Q12888); assay: Bio-Layer Interferometry (BLI) with immobilized 53BP1 Tudor domain; conditions: biotin-labeled immobilized 53BP1 Tudor domain; 1:1 binding model
Description: Data were collected using an Octet R8 system (Sartorius). Purified 53BP1 Tudor domain was labeled at exposed primary amine groups with NHS-biotin using ChromaLINK NHS-Biotin protein labeling kit (Vector Laboratories). 1 equivalent of chromalink biotin was incubated with the 53BP1 Tudor domain for 2 hours and buffer exchanged into fresh PBS. Labeling efficiency was calculated to be approximately 1 biotin per molecule of 53BP1 Tudor domain. Octet SA Biosensor tips (Sartorius) were incubated with biotin-labeled 53BP1 Tudor domain (ligand) for 60-80 seconds. The labeled tip was then dipped in 1× binding buffer (Sartorius) for 60 seconds to remove excess ligand and achieve baseline. […] A range of analyte concentrations were tested from a highest to lowest concentration in nM (i.e. 200, 100, 50, 25, 12.5, 6.25, 3.125). The tips were then introduced to 1× binding buffer for 5 minutes and the response was continuously monitored to detect dissociation. A dissociation constant (KD) was calculated using a 1:1 binding model and the on-rate (ka) and off-rate […] were calculated as a change in response (nm) over time (sec).

CD34+ HSPCs [2] = assay: validation of individual i53 variants via lentiviral expression; GFP integration by flow cytometry (HBB-UBC-GFP AAV); format: cell-based, human; conditions: HBB-UBC-GFP AAV MOI=1250
Excerpt: Sequences of individual i53 variants of interest were cloned into the lentiviral-based expression plasmid described above. Hits were validated either as pooled “validation libraries” (variant and control plasmids manually mixed to generate a pool of 5-25 variants) or individually. Lentivirus generated from these plasmids was used to transduce CD34+ HSPC cells at MOIs of 0.5-1 at day 1 post thaw. […] Cells transduced with pooled validation libraries were edited in triplicate or quadruplet; cells transduced with individual variants were edited in duplicate.
For individual testing of variants, rates of integration of the HBB-UBC-GFP donor were measured using a Beckman Coulter CytoFLEX. DAPI (Miltenyi Biotec) was used to discriminate live and dead cells. mCherry expression was used to differentiate transduced cells from untransduced cells and rates of GFP integration were compared between the two populations to quantify the impact of lentiviral-based variant expression on HDR rates. Flow cytometry data were analyzed using FlowJo 10 software.

CD34+ HSPCs [3] = assay: editing of CD34+ HSPCs with purified i53 variant proteins and HBB-UBC-GFP AAV donor; flow cytometry; format: cell-based, human; conditions: for increase of % HDR over DM: HBB-UBC-GFP AAV MOI 1250, protein 0.4 mg/mL, GFP integration in live cells, L67R/L67H value is the average of both; for increase in levels of GFP integration over control edited without protein: HBB-UBC-GFP AAV MOI 2500, average across all concentrations tested (0.1-0.8 mg/mL) and of L67R and L67H
Description: as §1, §2
Rates of targeted integration of the HBB UBC GFP donor were measured using a Beckman Coulter CytoFLEX. DAPI (Miltenyi Biotec) was used to discriminate live and dead cells. Flow cytometry data were analyzed using FlowJo 10 software.

CD34+ HSPCs [4] = assay: DNA damage response (DDR) markers yH2AX and p21 in edited HSPCs; conditions: protein 0.8 mg/mL; any given MOI (78.125-2500); 24 h post nucleofection
Description: In order to quantify the induction of the DNA damage response (DDR) pathways, a subset of edited cells was harvested 24 h post nucleofection to quantify DDR markers p21 and yH2AX^5.

Chain of 53BP1 Tudor domain (Q12888 1484-1603): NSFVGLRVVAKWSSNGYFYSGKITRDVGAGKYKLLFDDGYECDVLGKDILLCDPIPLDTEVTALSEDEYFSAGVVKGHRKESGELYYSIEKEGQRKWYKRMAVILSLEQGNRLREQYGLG

Row | Substance | increase of % HDR over control edited without protein (CD34+ HSPCs [1]; HBB-SNP AAV MOI 312.5) | increase of % HDR over control edited without protein (CD34+ HSPCs [1]; HBB-SNP AAV MOI 2500) | increase in levels of HDR corrected alleles over DM (CD34+ HSPCs [1]; HBB-SNP AAV MOI 312.5) | levels of % HDR corrected alleles (CD34+ HSPCs [1]) | increase in levels of HDR corrected alleles over DM (CD34+ HSPCs [1]; HBB-SNP AAV MOI 2500) | impact on % NHEJ (CD34+ HSPCs [1]) | rate of binding compared to parent i53 (53BP1 Tudor domain) | rates of GFP integration in mCherry+ live cells in relation to mCherry- control cells, compared with i53 and DM (CD34+ HSPCs [2]) | increase of % HDR over DM (CD34+ HSPCs [3]) | increase in levels of GFP integration over control edited without protein (CD34+ HSPCs [3]) | p21 response (CD34+ HSPCs [4]) | yH2AX response (CD34+ HSPCs [4])
1 | L67H: i53 variant with His at position 67 | 62% | 27% | 56% | approaching those using 2500 MOI alone | 44% | more significant impact on % NHEJ relative to i53 | measurably increased rate of binding compared to parent i53 | higher rates of GFP integration | 69% | 70% |  | 
2 | L67R: i53 variant with Arg at position 67 | 62% | 27% | 56% | approaching those using 2500 MOI alone | 44% | more significant impact on % NHEJ relative to i53 | measurably increased rate of binding compared to parent i53 | higher rates of GFP integration | 69% | 70% | not found to significantly increase | not found to significantly increase
